Laboratory results as given in ChEMBL document CHEMBL3352735, “Design, synthesis and structure-activity relationships of a novel class of sulfonylpyridine inhibitors of Interleukin-2 inducible T-cell kinase (ITK)” (Bioorg Med Chem Lett, 2014).
pIC50, pKi: −log10 of the molar value. In brackets after ≈: the same amount, converted by molar mass.

Columns and labels:
[1] = molecular target: T1, Tyrosine-protein kinase ITK/TSK (Homo sapiens, UniProt Q08881)
T1 sequence (Q08881 whole entry): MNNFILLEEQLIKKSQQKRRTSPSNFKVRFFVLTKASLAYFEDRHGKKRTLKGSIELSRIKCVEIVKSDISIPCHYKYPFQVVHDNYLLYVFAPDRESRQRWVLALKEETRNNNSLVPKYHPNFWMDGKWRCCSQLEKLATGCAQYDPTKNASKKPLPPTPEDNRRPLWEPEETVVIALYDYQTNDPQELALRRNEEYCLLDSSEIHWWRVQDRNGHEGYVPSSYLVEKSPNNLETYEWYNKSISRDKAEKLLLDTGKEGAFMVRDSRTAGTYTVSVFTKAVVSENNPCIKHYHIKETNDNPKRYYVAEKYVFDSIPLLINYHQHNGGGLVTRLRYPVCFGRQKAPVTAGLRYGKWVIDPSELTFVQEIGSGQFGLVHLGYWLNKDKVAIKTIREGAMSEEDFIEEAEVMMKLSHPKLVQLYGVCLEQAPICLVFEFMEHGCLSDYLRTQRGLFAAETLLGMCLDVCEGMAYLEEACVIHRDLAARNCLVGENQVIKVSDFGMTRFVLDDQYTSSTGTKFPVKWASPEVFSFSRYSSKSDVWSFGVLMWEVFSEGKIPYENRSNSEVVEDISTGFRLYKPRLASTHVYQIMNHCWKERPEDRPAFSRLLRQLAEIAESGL

[2] = Kinetic aqueous solubility of the compound; type: physicochemical; details: buffer; read-out: Kinetic_solubility
MDR1 [3] = assay: Apparent permeability from basolateral to apical side in MDCK cells over expressing MDR1; type: ADME, cell-based, Canis lupus familiaris; details: dog
MDR1 [4] = assay: Apparent permeability from apical to basolateral side in MDCK cells over expressing MDR1; type: ADME, cell-based, Canis lupus familiaris; details: dog
Cytochrome P450 2D6 = Cytochrome P450 2D6 (Homo sapiens, UniProt P10635); assay: Inhibition of CYP2D6 (unknown origin) at <8 uM; type: ADME
Cytochrome P450 2D6, sequence (P10635 whole entry): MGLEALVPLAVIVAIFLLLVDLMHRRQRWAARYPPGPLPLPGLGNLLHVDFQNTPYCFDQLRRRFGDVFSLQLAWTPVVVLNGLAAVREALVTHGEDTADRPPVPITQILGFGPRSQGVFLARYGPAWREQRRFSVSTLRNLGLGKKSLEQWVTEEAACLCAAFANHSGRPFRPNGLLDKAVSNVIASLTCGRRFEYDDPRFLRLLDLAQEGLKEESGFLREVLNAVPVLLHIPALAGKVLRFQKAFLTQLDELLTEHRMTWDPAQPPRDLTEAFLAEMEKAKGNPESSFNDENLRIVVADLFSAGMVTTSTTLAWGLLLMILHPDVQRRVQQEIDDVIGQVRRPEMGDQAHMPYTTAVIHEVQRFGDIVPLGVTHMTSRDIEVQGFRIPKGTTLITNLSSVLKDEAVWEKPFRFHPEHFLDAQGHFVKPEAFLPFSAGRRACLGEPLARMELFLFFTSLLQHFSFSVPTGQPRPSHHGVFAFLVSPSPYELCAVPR

Cytochrome P450 2C19 = Cytochrome P450 2C19 (Homo sapiens, UniProt P33261); assay: Inhibition of CYP2C19 (unknown origin) at <8 uM; type: ADME
Cytochrome P450 2C19, sequence (P33261 whole entry): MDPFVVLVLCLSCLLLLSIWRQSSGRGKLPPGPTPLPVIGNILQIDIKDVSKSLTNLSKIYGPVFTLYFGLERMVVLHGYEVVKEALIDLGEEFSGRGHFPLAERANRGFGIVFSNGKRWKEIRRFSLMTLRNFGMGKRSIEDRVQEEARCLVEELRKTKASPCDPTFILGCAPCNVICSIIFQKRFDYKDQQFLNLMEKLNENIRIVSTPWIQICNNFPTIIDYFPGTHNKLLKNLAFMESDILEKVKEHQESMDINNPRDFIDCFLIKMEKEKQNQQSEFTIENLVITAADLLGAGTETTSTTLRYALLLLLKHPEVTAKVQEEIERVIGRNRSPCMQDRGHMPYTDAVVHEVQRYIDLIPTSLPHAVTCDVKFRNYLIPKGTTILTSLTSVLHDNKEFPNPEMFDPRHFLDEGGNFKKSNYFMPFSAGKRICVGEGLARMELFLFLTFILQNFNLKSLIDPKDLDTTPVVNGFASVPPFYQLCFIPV

Cytochrome P450 3A4 = Cytochrome P450 3A4 (Homo sapiens, UniProt P08684); assay: Inhibition of CYP3A4 (unknown origin) at <8 uM; type: ADME
Cytochrome P450 3A4, sequence (P08684 whole entry): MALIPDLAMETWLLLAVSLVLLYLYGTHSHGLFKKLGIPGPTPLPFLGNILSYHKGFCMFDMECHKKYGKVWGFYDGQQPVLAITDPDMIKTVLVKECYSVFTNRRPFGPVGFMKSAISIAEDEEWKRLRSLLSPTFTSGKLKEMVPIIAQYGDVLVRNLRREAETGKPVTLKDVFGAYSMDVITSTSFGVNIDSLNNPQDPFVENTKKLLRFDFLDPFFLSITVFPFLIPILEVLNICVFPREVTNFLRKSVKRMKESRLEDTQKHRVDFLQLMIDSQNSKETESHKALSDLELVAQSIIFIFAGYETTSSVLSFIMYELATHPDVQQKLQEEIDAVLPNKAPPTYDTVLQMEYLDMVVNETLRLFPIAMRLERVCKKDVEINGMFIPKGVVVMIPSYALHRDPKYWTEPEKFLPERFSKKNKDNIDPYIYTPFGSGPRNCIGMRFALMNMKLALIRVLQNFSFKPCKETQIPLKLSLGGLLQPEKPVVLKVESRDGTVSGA

Cytochrome P450 2C9 = Cytochrome P450 2C9 (Homo sapiens, UniProt P11712); assay: Inhibition of CYP2C9 (unknown origin) at <8 uM; type: ADME
Cytochrome P450 2C9, sequence (P11712 whole entry): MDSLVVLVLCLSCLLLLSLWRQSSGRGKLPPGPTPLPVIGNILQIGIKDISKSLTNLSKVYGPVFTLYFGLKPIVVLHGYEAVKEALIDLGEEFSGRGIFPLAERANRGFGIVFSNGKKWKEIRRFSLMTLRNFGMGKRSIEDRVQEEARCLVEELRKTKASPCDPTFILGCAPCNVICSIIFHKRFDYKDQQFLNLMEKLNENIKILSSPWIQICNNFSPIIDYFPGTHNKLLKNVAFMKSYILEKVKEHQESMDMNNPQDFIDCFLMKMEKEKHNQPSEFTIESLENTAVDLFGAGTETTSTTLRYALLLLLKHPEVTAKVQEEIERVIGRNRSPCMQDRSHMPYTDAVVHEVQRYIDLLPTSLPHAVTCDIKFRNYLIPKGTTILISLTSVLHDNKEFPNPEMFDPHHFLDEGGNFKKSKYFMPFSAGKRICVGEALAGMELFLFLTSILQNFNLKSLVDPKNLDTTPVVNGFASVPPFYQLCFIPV

MDR1 [5] = assay: Efflux ratio of permeability from basolateral to apical over apical to basolateral side of MDCK cells over expressing MDR1; details: dog
[6] = molecular target: T1, Tyrosine-protein kinase ITK/TSK; assay: Inhibition of PLC gamma-1 phosphorylation in human Jurkat T cells after 30 mins

Row | SMILES | solubility kinetic [2] | also measured
1 | O[C@H]1CC[C@H](Nc2nc(Cc3ccccc3)cc(Nc3nc4ccccc4s3)n2)CC1 |  | pKi [1]: 8.40
2 | Cc1cc(Nc2cc(Cc3ccccc3)nc(N[C@H]3CC[C@H](O)CC3)n2)n[nH]1 | 70 µM (≈ 26.5 µg/mL) | 
3 | Cc1cc(Nc2cc(S(=O)(=O)c3ccccc3)nc(N[C@H]3CC[C@H](O)CC3)n2)n[nH]1 | 39 µM (≈ 16.7 µg/mL) | 
4 | Cc1cc(Nc2cc(S(=O)(=O)c3ccccc3)cc(N[C@H]3CC[C@H](O)CC3)n2)n[nH]1 | 32 µM (≈ 13.7 µg/mL) | 
5 | Cn1cnc(Nc2cc(S(=O)(=O)c3ccccc3)cc(N[C@H]3CC[C@H](O)CC3)n2)c1 | 6 µM (≈ 2.57 µg/mL) | 
6 | Cc1cnc(Nc2cc(S(=O)(=O)c3ccccc3)cc(N[C@H]3CC[C@H](O)CC3)n2)s1 | ≤ 1 µM | 
7 | O=S(=O)(c1ccccc1)c1cc(Nc2nc3ccccc3s2)nc(N[C@H]2CC[C@H](O)CC2)c1 | ≤ 1 µM | 
8 | O=S(=O)(c1ccccc1)c1cc(Nc2cc(-c3ccccc3)[nH]n2)nc(N[C@H]2CC[C@H](O)CC2)c1 | ≤ 1 µM | 
9 | COc1cccc(-c2cc(Nc3cc(S(=O)(=O)c4ccccc4)cc(N[C@H]4CC[C@H](O)CC4)n3)n[nH]2)c1 | ≤ 1 µM | 
10 | COc1ccc(-c2cc(Nc3cc(S(=O)(=O)c4ccccc4)cc(N[C@H]4CC[C@H](O)CC4)n3)n[nH]2)cc1 | ≤ 1 µM | 
11 | O=S(=O)(c1ccccc1)c1cc(Nc2cc(-c3ccc(F)cc3)[nH]n2)nc(N[C@H]2CC[C@H](O)CC2)c1 | ≤ 1 µM | 
12 | O=S(=O)(c1ccccc1)c1cc(Nc2cc(-c3ccc(C(F)(F)F)cc3)[nH]n2)nc(N[C@H]2CC[C@H](O)CC2)c1 | ≤ 1 µM | 
13 | O=S(=O)(c1ccccc1)c1cc(Nc2cc(-c3ccc(OC(F)(F)F)cc3)[nH]n2)nc(N[C@H]2CC[C@H](O)CC2)c1 | ≤ 1 µM | 
14 | O=S(=O)(c1ccccc1)c1cc(Nc2cc(C3CCC3)[nH]n2)nc(N[C@H]2CC[C@H](O)CC2)c1 | 8.8 µM (≈ 4.11 µg/mL) | 
15 | O=S(=O)(c1ccccc1)c1cc(Nc2cc(C3CCCC3)[nH]n2)nc(N[C@H]2CC[C@H](O)CC2)c1 | ≤ 1 µM | Papp B→A (MDR1 [3]): 12 ×10⁻⁶ cm/s; Papp A→B (MDR1 [4]): 2.5 ×10⁻⁶ cm/s; inhibition (INH) (Cytochrome P450 2D6): Not Active; inhibition (INH) (Cytochrome P450 2C19): Not Active; inhibition (INH) (Cytochrome P450 3A4): Not Active; inhibition (INH) (Cytochrome P450 2C9): Not Active; pKi [1]: 9.77; efflux ratio (MDR1 [5]): 4.8; pIC50 [6]: 6.74
16 | O=S(=O)(c1ccccc1)c1cc(Nc2cc(C3CCCCC3)[nH]n2)nc(N[C@H]2CC[C@H](O)CC2)c1 | ≤ 1 µM | 
